Laboratory results from US20250011368A1, “DLL3 TARGETING PEPTIDES AND CONSTRUCTS THEREOF” (MARIANA ONCOLOGY INC., priority 2023, published 2025).
Numbered stars: 1 amine (or outer) side, 2 acyl side, 3 side chain; on linkers, the order of the positions; unused ones are H or OH. Bridge positions count the residues as written; N and C are the ends. Square brackets hold non-standard residues; d marks the D form. Side chains are listed from the residue outwards. Peptide text beside a SMILES is read from it. * marks the point of attachment. X4 = O=C(O)CN1CCN(CC(=O)O)CCN(CC(=O)N[C@H]2CC[C@H](CC(=O)*)CC2)CCN(CC(=O)O)CC1; X9 = O=C(O)CN1CCN(CC(=O)O)CCN(CC(=O)NCCCOCCOCCOCCCN*)CCN(CC(=O)O)CC1; DOTA = O=C(O)CN1CCN(CC(=O)O)CCN(CC(=O)*)CCN(CC(=O)O)CC1; Trp(7-Me) = Cc1cccc2c(C[C@H](N)C(=O)O)c[nH]c12; Trp(7-aza) = N[C@@H](Cc1c[nH]c2ncccc12)C(=O)O; γGlu = O=C(O)[C@H](CCC(=O)[*:2])N[*:1]; 2Nal = N[C@@H](Cc1ccc2ccccc2c1)C(=O)O; Nva(3-Et) = CCC(CC)[C@H](N)C(=O)O; Chg = N[C@H](C(=O)O)C1CCCCC1; Suc = O=C(CCC(=O)[*:2])[*:1]

molecular target: T1, human DLL3 (Homo sapiens, UniProt Q9NYJ7); test: Affinity determination by Surface Plasmon Resonance (SPR); format: binding; details: 25° C., biotinylated human DLL3 immobilized on streptavidin sensor chip, 1:1 binding model; read-out: SPR KD
T1 sequence (Q9NYJ7 27-618): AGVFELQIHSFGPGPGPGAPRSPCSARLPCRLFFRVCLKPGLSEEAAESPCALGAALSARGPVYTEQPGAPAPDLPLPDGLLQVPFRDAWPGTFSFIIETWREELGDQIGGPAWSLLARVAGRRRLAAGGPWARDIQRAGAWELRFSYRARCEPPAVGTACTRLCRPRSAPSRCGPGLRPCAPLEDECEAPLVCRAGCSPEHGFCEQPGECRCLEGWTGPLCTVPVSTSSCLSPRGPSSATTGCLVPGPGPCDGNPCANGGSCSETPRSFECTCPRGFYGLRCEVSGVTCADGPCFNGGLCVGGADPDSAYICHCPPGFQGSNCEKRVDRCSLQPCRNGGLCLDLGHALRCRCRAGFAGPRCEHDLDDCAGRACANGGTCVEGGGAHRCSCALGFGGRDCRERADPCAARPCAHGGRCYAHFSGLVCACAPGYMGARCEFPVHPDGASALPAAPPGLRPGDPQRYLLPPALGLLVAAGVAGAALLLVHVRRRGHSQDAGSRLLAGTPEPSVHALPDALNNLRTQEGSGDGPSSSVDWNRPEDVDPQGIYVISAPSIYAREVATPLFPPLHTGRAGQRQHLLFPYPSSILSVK
Procedure, shortened: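 Biotinylated human DLL3 was captured on a streptavidin chip with a reference surface. Compounds at several concentrations were injected at 100 μL/minute in phosphate buffer (137 mM NaCl, 2.7 mM KCl, 0.05% P20, 2% DMSO). Affinity and kinetics came from 1:1 model fits of the sensorgrams.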

Kd [nM]	SMILES
< 1	CC(=O)N[C@@H](Cc1c[nH]c2ccccc12)C(=O)N[C@H](C(=O)N[C@H](C(=O)N[C@H]1CSSC[C@@H](C(=O)N[C@@H](Cc2c[nH]c3ncccc23)C(=O)N2CCC[C@H]2C(=O)N[C@H](CCCCNC(=O)C[C@H]2CC[C@H](NC(=O)CN3CCN(CC(=O)O)CCN(CC(=O)O)CCN(CC(=O)O)CC3)CC2)C(N)=O)NC(=O)[C@H](CC(=O)O)NC(=O)[C@H](Cc2cnc[nH]2)NC(=O)[C@H](Cc2ccc3ccccc3c2)NC(=O)[C@H](CC(N)=O)NC(=O)[C@H](CC(N)=O)NC1=O)C1CCCCC1)[C@@H](C)O [compound 203, Ac-W-T-(Chg)-C(3)-N-N-(2Nal)-H-D-C(3)-(7-Aza-W)-P-[D-Lys(Chx-DOTA)]-NH2] (Ac-WT[Chg]CNN[2Nal]HDC[Trp(7-aza)]P[dK](X4)-NH2; disulfide 4-10)
< 1	CCC(CC)[C@H](NC(=O)[C@@H](NC(=O)[C@H](Cc1c[nH]c2ccccc12)NC(C)=O)[C@@H](C)O)C(=O)N[C@H]1CSSC[C@@H](C(=O)N[C@@H](Cc2c[nH]c3ncccc23)C(=O)N2CCC[C@H]2C(=O)N[C@H](CCCCNC(=O)CCC(=O)NCCCOCCOCCOCCCNC(=O)CN2CCN(CC(=O)O)CCN(CC(=O)O)CCN(CC(=O)O)CC2)C(N)=O)NC(=O)[C@H](CC(=O)O)NC(=O)[C@H](Cc2c[nH]cn2)NC(=O)[C@H](Cc2ccc3ccccc3c2)NC(=O)[C@H](CC(N)=O)NC(=O)[C@H](CC(N)=O)NC1=O [compound 204, Ac-W-T-(Env)-C(3)-N-N-(2Nal)-H-D-C(3)-(7-Aza-W)-P-[D-Lys(G-G-TTDS-DOTA)]-NH2] (Ac-WT[Nva(3-Et)]CNN[2Nal]HDC[Trp(7-aza)]P[dK]([Suc-X9])-NH2; disulfide 4-10)
< 1	CC[C@H](C)[C@H](NC(=O)[C@@H](NC(=O)[C@H](Cc1c[nH]c2c(C)cccc12)NC(C)=O)[C@@H](C)O)C(=O)N[C@H]1CSSC[C@@H](C(=O)N[C@@H](Cc2c[nH]c3ccccc23)C(=O)N2CCC[C@H]2C(=O)N[C@H](CCCCNC(=O)CN2CCN(CC(=O)O)CCN(CC(=O)O)CCN(CC(=O)O)CC2)C(N)=O)NC(=O)[C@H](CC(=O)O)NC(=O)[C@H](Cc2cnc[nH]2)NC(=O)[C@H](Cc2ccc3ccccc3c2)NC(=O)[C@H](CC(N)=O)NC(=O)[C@H](CC(N)=O)NC1=O [compound 206, Ac-(7-Me-W)-T-I-C(3)-N-N-(2Nal)-H-D-C(3)-W-P-[D-Lys(DOTA)]-NH2] (Ac-[Trp(7-Me)]TICNN[2Nal]HDCWP[dK](DOTA)-NH2; disulfide 4-10)
< 1	CC[C@H](C)[C@H](NC(=O)[C@@H](NC(=O)[C@H](Cc1c[nH]c2c(C)cccc12)NC(C)=O)[C@@H](C)O)C(=O)N[C@H]1CSSC[C@@H](C(=O)N[C@@H](Cc2c[nH]c3ccccc23)C(=O)N2CCC[C@H]2C(=O)N[C@H](CCCCNC(=O)CC[C@H](NC(=O)CC[C@H](NC(=O)CC[C@H](NC(=O)CN2CCN(CC(=O)O)CCN(CC(=O)O)CCN(CC(=O)O)CC2)C(=O)O)C(=O)O)C(=O)O)C(N)=O)NC(=O)[C@H](CC(=O)O)NC(=O)[C@H](Cc2cnc[nH]2)NC(=O)[C@H](Cc2ccc3ccccc3c2)NC(=O)[C@H](CC(N)=O)NC(=O)[C@H](CC(N)=O)NC1=O [compound 207, Ac-(7-Me-W)-T-I-C(3)-N-N-(2Nal)-H-D-C(3)-W-P-[D-Lys(gE-gE-gE-DOTA)]-NH2] (Ac-[Trp(7-Me)]TICNN[2Nal]HDCWP[dK]([γGlu-γGlu-γGlu-DOTA])-NH2; disulfide 4-10)
< 1	CC[C@H](C)[C@H](NC(=O)[C@@H](NC(=O)[C@H](Cc1c[nH]c2ccccc12)NC(C)=O)[C@@H](C)O)C(=O)N[C@H]1CSSC[C@@H](C(=O)N[C@@H](Cc2c[nH]c3ccccc23)C(=O)N2CCC[C@H]2C(=O)N[C@H](CCCCNC(=O)CN2CCN(CC(=O)O)CCN(CC(=O)O)CCN(CC(=O)O)CC2)C(N)=O)NC(=O)[C@H](CC(=O)O)NC(=O)[C@H](Cc2cnc[nH]2)NC(=O)[C@H](Cc2ccc3ccccc3c2)NC(=O)[C@H](CC(N)=O)NC(=O)[C@H](CO)NC1=O [compound 208, Ac-W-T-I-C(3)-(Ser)-N-(2Nal)-H-D-C(3)-W-P-[D-Lys(DOTA)]-NH2] (Ac-WTICSN[2Nal]HDCWP[dK](DOTA)-NH2; disulfide 4-10)
